Experiment [1] has as its target T1, SARS-CoV-2 PLpro (nsp3 1564–1878) (Severe acute respiratory syndrome coronavirus 2, UniProt P0DTD1). The experiment can be described thus: biochemical. Also on record: FRET-quenched peptide (Pro3) cleavage by PLpro, 10 min pre-incubation, slope over 20 min, normalised to no-compound control. Particulars: read-out: % of control remaining.
Experiment [2] addresses T1, SARS-CoV-2 PLpro (nsp3 1564–1878). The experiment can be described thus: biochemical. The note with it: read-out: % of control remaining. Also on record: FRET-quenched peptide (Pro3) cleavage by PLpro, 10 min pre-incubation, slope over 20 min, normalised to no-compound control. This is another data set of the same source.

Structures are written as SMILES. Counter-ions that a name gives are not always drawn. Like-named read-outs stand apart in the source and are kept apart here.

In the case of `COc1ccc2[nH]cc(C3=CCNCC3)c2c1` [RU 24969], the remaining activity at 3.75 µM in experiment [1] (Well no.=7997, high concentration screen) came out at 102%. For the same compound, the remaining activity at 1.25 µM in experiment [2] (Well no.=7997, low concentration screen) came out at 104%.

Consider `OCCC#Cc1nc(-c2ccc(F)cc2)c(-c2ccncc2)n1CCCc1ccccc1` [RWJ-67657], for which the remaining activity at 3.75 µM in experiment [1] (Well no.=2987, high concentration screen) was 91.7%. Moreover, the remaining activity at 1.25 µM in experiment [2] (Well no.=2987, low concentration screen) is 94.7%.

Consider `COC1(C2=NCCN2)COc2ccccc2O1` (stereo not drawn) [RX 821002 hydrochloride], for which the remaining activity at 3.75 µM in experiment [1] (Well no.=1208, high concentration screen) was found to be 98.7%. Further, in experiment [2] (Well no.=1208, low concentration screen), the remaining activity at 1.25 µM amounted to 100%.

Turning to `CC(=O)SCC(Cc1ccccc1)C(=O)NCC(=O)OCc1ccccc1` (stereo not drawn) [Racecadotril], the remaining activity at 3.75 µM in experiment [1] (Well no.=2191, high concentration screen) came out at 95.7%. In addition, the remaining activity at 1.25 µM in experiment [2] (Well no.=2191, low concentration screen) stood at 97.6%.

On to `C[C@@H]1C[C@H]2O[C@@H]2/C=C\C=C\C(=O)Cc2c(Cl)c(O)cc(O)c2C(=O)O1` [Radicicol], for which the remaining activity at 3.75 µM in experiment [1] (Well no.=3124, high concentration screen) is 98.1%. Further, the remaining activity at 1.25 µM in experiment [2] (Well no.=3124, low concentration screen) came to 95.9%.

`O=C(c1ccc(OCCN2CCCCC2)cc1)c1c(-c2ccc(O)cc2)sc2cc(O)ccc12` [Raloxifene hydrochloride]: the remaining activity at 3.75 µM in experiment [1] (Well no.=1204, high concentration screen) was 99.2%. Also, the remaining activity at 1.25 µM in experiment [2] (Well no.=1204, low concentration screen) came to 97.4%.

For the compound `O=C(c1ccc(OCCN2CCCCC2)cc1)c1c(-c2ccc(O)cc2)sc2cc(O)ccc12` [Raloxifene], the remaining activity at 3.75 µM in experiment [1] (Well no.=1662, high concentration screen) is 108%. The remaining activity at 1.25 µM in experiment [2] (Well no.=1662, low concentration screen) was found to be 107%.

Turning to `Cc1nc(=O)c2cc(CN(C)c3ccc(C(=O)N[C@@H](CCC(=O)O)C(=O)O)s3)ccc2[nH]1` [Raltitrexed (Tomudex)], the remaining activity at 3.75 µM in experiment [1] (Well no.=4723, high concentration screen) stood at 106%. The remaining activity at 1.25 µM in experiment [2] (Well no.=4723, low concentration screen) is 115%.

On to `Cc1nc(=O)c2cc(CN(C)c3ccc(C(=O)N[C@@H](CCC(=O)O)C(=O)O)s3)ccc2[nH]1` [Raltitrexed], for which the remaining activity at 3.75 µM in experiment [1] (Well no.=6308, high concentration screen) came to 99.3%; in experiment [1] (Well no.=7452, high concentration screen), 99.7%. The remaining activity at 1.25 µM turned out to be 98.3% in experiment [2] (Well no.=6308, low concentration screen) and 104% in experiment [2] (Well no.=7452, low concentration screen).

As to `CCC(=O)NCC[C@@H]1CCc2ccc3c(c21)CCO3` [Ramelteon], the remaining activity at 3.75 µM in experiment [1] (Well no.=8525, high concentration screen) amounted to 106%. Besides, in experiment [2] (Well no.=8525, low concentration screen), the remaining activity at 1.25 µM was 104%.

As to `CCOC(=O)[C@H](CCc1ccccc1)N[C@@H](C)C(=O)N1[C@H](C(=O)O)C[C@@H]2CCC[C@@H]21` [Ramipril], the remaining activity at 3.75 µM in experiment [1] (Well no.=2195, high concentration screen) turned out to be 93.2%; in experiment [1] (Well no.=7446, high concentration screen), 98.5%. Besides, the remaining activity at 1.25 µM in experiment [2] (Well no.=2195, low concentration screen) is 94.4%; in experiment [2] (Well no.=7446, low concentration screen), 99.8%.

Take `Cn1cc(C(=O)[C@@H]2CCc3[nH]cnc3C2)c2ccccc21` [Ramosetron (Hydrochloride)]: the remaining activity at 3.75 µM in experiment [1] (Well no.=7339, high concentration screen) stood at 103%. Also, in experiment [2] (Well no.=7339, low concentration screen), the remaining activity at 1.25 µM was determined as 102%.

`CNC(=C[N+](=O)[O-])NCCSCc1ccc(CN(C)C)o1` [Ranitidine (hydrochloride)]: the remaining activity at 3.75 µM in experiment [1] (Well no.=6609, high concentration screen) was determined as 104%. Besides, the remaining activity at 1.25 µM in experiment [2] (Well no.=6609, low concentration screen) turned out to be 102%.

On to `CNC(=C[N+](=O)[O-])NCCSCc1ccc(CN(C)C)o1` [Ranitidine hydrochloride], for which, in experiment [1] (Well no.=1304, high concentration screen), the remaining activity at 3.75 µM is 101%. Further, the remaining activity at 1.25 µM in experiment [2] (Well no.=1304, low concentration screen) is 101%.

Regarding `CNC(=C[N+](=O)[O-])NCCSCc1ccc(CN(C)C)o1` [Ranitidine.HCl], in experiment [1] (Well no.=1642, high concentration screen), the remaining activity at 3.75 µM stood at 105%. Further, the remaining activity at 1.25 µM in experiment [2] (Well no.=1642, low concentration screen) is 105%.

Take `COc1ccccc1OCC(O)CN1CCN(CC(=O)Nc2c(C)cccc2C)CC1` (stereo not drawn) [Ranolazine dihydrochloride]: the remaining activity at 3.75 µM in experiment [1] (Well no.=1254, high concentration screen) was found to be 106%. In addition, the remaining activity at 1.25 µM in experiment [2] (Well no.=1254, low concentration screen) worked out at 108%.

Turning to `CO[C@H]1C[C@@H]2CC[C@@H](C)[C@@](O)(O2)C(=O)C(=O)N2CCCC[C@H]2C(=O)O[C@H]([C@H](C)C[C@@H]2CC[C@@H](O)[C@H](OC)C2)CC(=O)[C@H](C)/C=C(\C)[C@@H](O)[C@@H](OC)C(=O)[C@H](C)C[C@H](C)/C=C/C=C/C=C/1C` [Rapamycin], the remaining activity at 3.75 µM turned out to be 97.9% in experiment [1] (Well no.=1557, high concentration screen); 91.9% in experiment [1] (Well no.=2555, high concentration screen); 106% in experiment [1] (Well no.=3126, high concentration screen). Moreover, the remaining activity at 1.25 µM in experiment [2] (Well no.=1557, low concentration screen) stood at 99.1%; in experiment [2] (Well no.=2555, low concentration screen) it was 93.5%; in experiment [2] (Well no.=3126, low concentration screen) it was 102%.

For `COc1ccc2nc3n[nH]c(C)c3c(NCCOCCO)c2c1` [Ras/Rac Transformation Blocker, SCH 51344], the remaining activity at 3.75 µM in experiment [1] (Well no.=2619, high concentration screen) amounted to 101%. In addition, the remaining activity at 1.25 µM in experiment [2] (Well no.=2619, low concentration screen) turned out to be 96.5%.

With `C#CCN[C@@H]1CCc2ccccc21` [Rasagiline mesylate], the remaining activity at 3.75 µM in experiment [1] (Well no.=4766, high concentration screen) was 97.6%. Further, the remaining activity at 1.25 µM in experiment [2] (Well no.=4766, low concentration screen) was determined as 98.4%.

With `COC(=O)[C@H]1[C@H]2C[C@H]3c4[nH]c5ccccc5c4CCN3C[C@H]2CC[C@@H]1O` [Rauwolscine hydrochloride], the remaining activity at 3.75 µM in experiment [1] (Well no.=1400, high concentration screen) is 99%. Moreover, in experiment [2] (Well no.=1400, low concentration screen), the remaining activity at 1.25 µM was determined as 100%.

Regarding `COC(=O)[C@H]1[C@H]2C[C@H]3c4[nH]c5ccccc5c4CCN3C[C@H]2CC[C@@H]1O` [Rauwolscine], the remaining activity at 3.75 µM in experiment [1] (Well no.=3128, high concentration screen) was determined as 99.4%. For the same compound, the remaining activity at 1.25 µM in experiment [2] (Well no.=3128, low concentration screen) was found to be 99%.

For `Nc1c(S(=O)(=O)O)cc(Nc2ccc(Nc3nc(Cl)nc(Nc4cccc(S(=O)(=O)O)c4)n3)c(S(=O)(=O)O)c2)c2c1C(=O)c1ccccc1C2=O` [Reactive Blue 2], the remaining activity at 3.75 µM in experiment [1] came out at 101%. Moreover, the remaining activity at 1.25 µM in experiment [2] was determined as 101%.

Take `O=C(NC(Cc1cc(=O)[nH]c2ccccc12)C(=O)O)c1ccc(Cl)cc1` (stereo not drawn) [Rebamipide]: the remaining activity at 3.75 µM was determined as 98.5% in experiment [1] (Well no.=2197, high concentration screen) and 98.9% in experiment [1] (Well no.=6992, high concentration screen). For the same compound, the remaining activity at 1.25 µM in experiment [2] (Well no.=2197, low concentration screen) worked out at 99.1%; in experiment [2] (Well no.=6992, low concentration screen) it was 95.1%.

`C=C1C[C@@]23CC[C@H]4[C@@](C)(CCC[C@@]4(C)C(=O)O[C@@H]4O[C@H](CO)[C@@H](O)[C@H](O)[C@H]4O)[C@@H]2CC[C@]1(O[C@@H]1O[C@H](C)[C@@H](O)[C@H](O)[C@@H]1O[C@@H]1O[C@H](CO)[C@@H](O)[C@H](O[C@@H]2O[C@H](CO)[C@@H](O)[C@H](O)[C@H]2O)[C@H]1O)C3` [Rebaudioside C]: the remaining activity at 3.75 µM in experiment [1] (Well no.=8446, high concentration screen) was 95.9%. Also, the remaining activity at 1.25 µM in experiment [2] (Well no.=8446, low concentration screen) is 96%.

As for `CNC(=O)c1cnn(-c2nc(N)c3ncn([C@@H]4O[C@H](CO)[C@@H](O)[C@H]4O)c3n2)c1` [Regadenoson], the remaining activity at 3.75 µM in experiment [1] (Well no.=6557, high concentration screen) was 103%; in experiment [1] (Well no.=8367, high concentration screen) it was 95.1%. The remaining activity at 1.25 µM in experiment [2] (Well no.=6557, low concentration screen) amounted to 106%; in experiment [2] (Well no.=8367, low concentration screen), 96.6%.

As to `CC(Cc1ccccc1)(NC(=O)CN)c1ccccc1` (stereo not drawn) [Remacemide hydrochloride], in experiment [1] (Well no.=5380, high concentration screen), the remaining activity at 3.75 µM is 94.8%. In addition, the remaining activity at 1.25 µM in experiment [2] (Well no.=5380, low concentration screen) turned out to be 99%.

Turning to `CCN1CCC[C@H]1CNC(=O)c1c(OC)ccc(Br)c1OC` [Remoxipride], in experiment [1] (Well no.=1819, high concentration screen), the remaining activity at 3.75 µM amounted to 99.4%. Besides, the remaining activity at 1.25 µM in experiment [2] (Well no.=1819, low concentration screen) was determined as 100%.

(Values after publication PMC8286840, “Identifying SARS-CoV-2 antiviral compounds by screening for small molecule inhibitors of Nsp3 papain-like protease” (Biochemical Journal, 2021).)
